Experiments:
[1] = molecular target: TRPC7 (Homo sapiens, UniProt Q9HCX4); assay: Fluorescence cell-based assay, TRPC7; conditions: membrane potential dye, spread in log units, duplicate
Protocol: (§1) The assays were performed at SB Discovery (Glasgow, UK) on a fee-for-service basis. Human TRP cells were trypsinised, counted and seeded in black, clear-bottomed 96 well plates at a density of 50,000 cells per well in 100 μL volume and incubated overnight. Next day, the cells were loaded with calcium 5 dye or membrane potential dye. TRPV1-5, TRPA1, TRPM2, TRPM3, and TRPM8 were tested using the calcium 5 dye. TRPC1, TRPC3-7, and TRPM4-5 were tested using the membrane potential dye. Both dye solutions were made up in HEPES buffered Hank's balanced salt solution (HBSS). Dye solution (90 μL) was added to the wells and incubated at 37° C. for 1 hour. Test compounds and standard inhibitors (10 μL) were then added to the wells and incubated at room temperature for 10 minutes. The plates were then placed in the flexstation and fluorescence monitored every 1.52 seconds. After 20 seconds agonist was added and the fluorescence monitored for 2 minutes at 485 nm/525 nm and 530 nm/565 nm, Ex/Em, for the calcium 5 dye and the membrane potential dye respectively. Controls-TRPV1: capsazepine; TRPV2: tranilast; TRPV3: ruthenium red; TRPV4: ruthenium red; TRPV5: Gd^3+; TRPA1, ruthenium red; TRPC1: Gd^3+; TRPC3: Pyr3; TRPC4: ML 204; TRPC5: ML 204; TRPC6: ML 204; TRPC7: SKF 96365; TRPM2: 2-APB; TRPM3: Mef acid; TRPM4: clotrimazole; TRPM5: TPPO; TRPM8: 2-APB. […]

[2] = molecular target: T1, TRPV2 (Homo sapiens, UniProt Q9Y5S1); assay: Manual patch-clamp assay, hTRPV2 stable HEK-293 cells; assay type: cell-based; conditions: n=3
T1 sequence (Q9Y5S1 1-764): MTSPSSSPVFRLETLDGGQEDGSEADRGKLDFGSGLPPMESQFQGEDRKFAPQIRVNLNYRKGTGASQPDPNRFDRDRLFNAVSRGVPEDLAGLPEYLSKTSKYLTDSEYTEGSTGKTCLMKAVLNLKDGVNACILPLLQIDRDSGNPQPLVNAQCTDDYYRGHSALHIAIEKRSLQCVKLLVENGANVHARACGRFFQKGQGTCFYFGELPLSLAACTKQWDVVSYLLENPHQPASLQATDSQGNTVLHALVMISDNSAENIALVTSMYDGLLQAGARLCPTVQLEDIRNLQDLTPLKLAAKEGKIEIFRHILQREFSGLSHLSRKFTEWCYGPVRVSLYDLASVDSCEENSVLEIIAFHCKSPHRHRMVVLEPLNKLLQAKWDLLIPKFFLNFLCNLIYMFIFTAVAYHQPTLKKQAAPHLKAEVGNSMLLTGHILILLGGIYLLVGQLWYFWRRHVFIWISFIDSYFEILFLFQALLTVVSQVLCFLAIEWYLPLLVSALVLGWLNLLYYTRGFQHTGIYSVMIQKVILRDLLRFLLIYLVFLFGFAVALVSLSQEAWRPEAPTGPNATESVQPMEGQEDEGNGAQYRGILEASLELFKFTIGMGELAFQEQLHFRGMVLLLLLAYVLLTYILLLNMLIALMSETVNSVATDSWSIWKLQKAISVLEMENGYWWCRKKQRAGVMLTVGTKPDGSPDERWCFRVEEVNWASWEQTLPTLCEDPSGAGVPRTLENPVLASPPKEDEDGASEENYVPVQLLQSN
Protocol: The assays were performed at SB Discovery (Glasgow, UK) on a fee-for-service basis. Concentration-response curves and washout assays were performed using a manual patch clamp method. HEK-293 cells were grown and prepared, according to the adapted procedure for hTRPV2 stable cell lines at SB Discovery. Cells were serum starved for approximately 24 hours and then changed to serum-containing media prior to electrophysiology testing. The manual patch-clamp assay was carried out at room temperature using a traditional electrophysiological unit. Cells were used within 2-3 hours after addition of serum containing media to the cells. The standard extracellular solution contained 145 mM NaCl, 4 mM KCl, 2 mM CaCl2, 1 mM MgCl2, 10 mM HEPES and 10 mM glucose. The pH was adjusted to 7.4 with NaOH, and the osmolarity was measured as 311 mOsm/L. The standard intracellular solution contained 50 mM KCl, 10 mM NaCl, 60 mM KF, 2 mM MgCl2, 20 mM EGTA and 10 mM HEPES. The pH was adjusted to 7.2 with KOH and the osmolarity was measured as 286 mOsm/L. A standard ramp protocol was used to monitor currents upon addition of control (extracellular solution) and compound solutions. The voltage protocol consisted of a series of voltage ramps from −100 mV to +100 mV, every 5 seconds, from a holding potential of −60 mV. The maximum outward current values during the recordings at +100 mV were used for analysis. Manual patch clamp experiments were carried out using an Axon 200B amplifier and a Digidata 1440A acquisition system from Axon Instruments (Molecular Devices, USA). The software program pClamp (version 10) from Axon Instruments was used to stimulate and record electrical activity. Capacitative transients were compensated electronically from the recordings, however the voltage drop across the series resistance and the liquid junction potential were not compensated. The series resistance was generally less than 10 MΩ, with a mean cell capacity of approximately 25 pF. The GraphPad Prism (version 5) software was used to analyze and plot all graphs. The agonist (cannabidiol; Abcam #ab120448) was prepared as 100 mM stock in 100% DMSO and diluted to 4 μM or 10 μM in physiological solution prior to testing. Piperlongumine was prepared as 100 mM stock in 100% DMSO and diluted to the specified concentrations in physiological solution (100, 50, 10, 1 and 0.1 μM), also containing 4 μM or 10 μM cannabidiol. Ruthenium red (Sigma, #R2751) was prepared daily as 10 mM stock ion distilled water and diluted to 100 μM in physiological solution.

[3] = molecular target: TRPA1 (Homo sapiens, UniProt O75762); assay: Fluorescence cell-based assay, TRPA1; conditions: calcium 5 dye, spread in log units, duplicate
TRPA1, sequence (O75762 whole entry): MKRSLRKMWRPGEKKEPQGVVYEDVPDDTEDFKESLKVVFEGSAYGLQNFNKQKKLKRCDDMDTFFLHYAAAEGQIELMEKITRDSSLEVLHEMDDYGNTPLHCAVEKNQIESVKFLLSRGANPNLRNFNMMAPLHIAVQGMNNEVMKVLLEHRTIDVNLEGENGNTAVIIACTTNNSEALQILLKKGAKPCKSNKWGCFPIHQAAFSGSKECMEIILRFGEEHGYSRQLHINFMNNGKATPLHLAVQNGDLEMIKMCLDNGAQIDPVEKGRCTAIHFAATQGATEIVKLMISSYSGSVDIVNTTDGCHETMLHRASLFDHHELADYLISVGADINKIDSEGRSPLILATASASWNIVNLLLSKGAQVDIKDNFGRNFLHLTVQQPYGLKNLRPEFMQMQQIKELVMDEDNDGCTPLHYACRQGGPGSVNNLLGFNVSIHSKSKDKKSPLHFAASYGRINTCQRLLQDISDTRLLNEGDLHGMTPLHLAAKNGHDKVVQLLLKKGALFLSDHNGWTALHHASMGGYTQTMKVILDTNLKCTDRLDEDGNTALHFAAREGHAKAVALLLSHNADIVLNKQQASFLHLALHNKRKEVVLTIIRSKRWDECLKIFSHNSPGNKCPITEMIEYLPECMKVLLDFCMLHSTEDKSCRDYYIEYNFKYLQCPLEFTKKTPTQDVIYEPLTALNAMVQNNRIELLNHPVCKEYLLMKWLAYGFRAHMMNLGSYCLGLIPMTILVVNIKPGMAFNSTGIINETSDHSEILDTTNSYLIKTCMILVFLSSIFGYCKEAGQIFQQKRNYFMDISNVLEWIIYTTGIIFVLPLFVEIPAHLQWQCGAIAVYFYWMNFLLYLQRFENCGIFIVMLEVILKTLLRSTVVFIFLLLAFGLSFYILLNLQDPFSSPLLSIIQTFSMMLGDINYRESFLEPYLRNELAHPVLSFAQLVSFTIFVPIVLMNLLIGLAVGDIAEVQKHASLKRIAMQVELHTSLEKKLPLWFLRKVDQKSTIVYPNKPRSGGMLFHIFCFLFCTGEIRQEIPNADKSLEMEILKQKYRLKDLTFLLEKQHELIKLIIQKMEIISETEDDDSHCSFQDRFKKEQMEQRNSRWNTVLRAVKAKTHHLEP
Protocol: as §1

[4] = molecular target: T1, TRPV2; assay: Fluorescence cell-based assay, TRPV2 (cannabidiol-evoked calcium influx); conditions: spread in log units; n=2; read-out: IC50 against TRPV2, fluorescence-based assay (FIG. 2a)
Protocol: The assays were performed at SB Discovery (Glasgow, UK) on a fee-for-service basis. Human TRP cells were trypsinised, counted and seeded in black, clear-bottomed 96 well plates at a density of 50,000 cells per well in 100 μL volume and incubated overnight. Next day, the cells were loaded with calcium 5 dye or membrane potential dye. TRPV1-5, TRPA1, TRPM2, TRPM3, and TRPM8 were tested using the calcium 5 dye. TRPC1, TRPC3-7, and TRPM4-5 were tested using the membrane potential dye. Both dye solutions were made up in HEPES buffered Hank's balanced salt solution (HBSS). Dye solution (90 μL) was added to the wells and incubated at 37° C. for 1 hour. Test compounds and standard inhibitors (10 μL) were then added to the wells and incubated at room temperature for 10 minutes. The plates were then placed in the flexstation and fluorescence monitored every 1.52 seconds. After 20 seconds agonist was added and the fluorescence monitored for 2 minutes at 485 nm/525 nm and 530 nm/565 nm, Ex/Em, for the calcium 5 dye and the membrane potential dye respectively. Controls-TRPV1: capsazepine; TRPV2: tranilast; TRPV3: ruthenium red; TRPV4: ruthenium red; TRPV5: Gd^3+; TRPA1, ruthenium red; TRPC1: Gd^3+; TRPC3: Pyr3; TRPC4: ML 204; TRPC5: ML 204; TRPC6: ML 204; TRPC7: SKF 96365; TRPM2: 2-APB; TRPM3: Mef acid; TRPM4: clotrimazole; TRPM5: TPPO; TRPM8: 2-APB. Control data was in all cases within historical range.

TRPC7, sequence (Q9HCX4 whole entry): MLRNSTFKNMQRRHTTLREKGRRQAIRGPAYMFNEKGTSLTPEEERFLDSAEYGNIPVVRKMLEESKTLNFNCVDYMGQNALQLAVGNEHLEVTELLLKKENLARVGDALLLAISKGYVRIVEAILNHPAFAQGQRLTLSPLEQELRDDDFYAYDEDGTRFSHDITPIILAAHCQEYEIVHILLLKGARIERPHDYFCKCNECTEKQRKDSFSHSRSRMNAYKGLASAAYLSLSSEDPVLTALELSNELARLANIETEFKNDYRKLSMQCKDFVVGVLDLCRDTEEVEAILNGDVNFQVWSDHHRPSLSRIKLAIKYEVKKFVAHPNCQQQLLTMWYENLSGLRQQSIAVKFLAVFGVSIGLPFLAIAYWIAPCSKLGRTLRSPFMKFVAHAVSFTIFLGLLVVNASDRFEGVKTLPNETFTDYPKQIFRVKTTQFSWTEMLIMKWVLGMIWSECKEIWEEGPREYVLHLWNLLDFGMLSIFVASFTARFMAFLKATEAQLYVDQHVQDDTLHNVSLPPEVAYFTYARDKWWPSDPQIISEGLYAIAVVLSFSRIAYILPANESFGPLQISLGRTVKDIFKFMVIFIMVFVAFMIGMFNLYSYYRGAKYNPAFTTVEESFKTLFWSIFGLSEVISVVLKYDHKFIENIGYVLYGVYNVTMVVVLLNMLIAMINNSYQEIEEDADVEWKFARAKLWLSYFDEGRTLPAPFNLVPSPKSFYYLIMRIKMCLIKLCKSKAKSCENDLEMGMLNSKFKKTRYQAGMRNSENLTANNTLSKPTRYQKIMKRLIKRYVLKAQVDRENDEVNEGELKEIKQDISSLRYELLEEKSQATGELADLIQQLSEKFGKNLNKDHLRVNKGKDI

COc1ccc(CCCOC(Cn2ccnc2)c2ccc(OC)cc2)cc1 (centres unmarked) [SKF 96365, reference compound]
IC50 [1]: 103 µM

C=C(C)[C@@H]1CCC(C)=C[C@H]1c1c(O)cc(CCCCC)cc1O [cannabidiol, reference compound]
nHill (cannabidiol), TRPV2 [2]: 0.6
EC50 ([2]; read-out: EC50 (cannabidiol), TRPV2): 3.8 µM

Cl.Cl.Cl.Cl.Cl.Cl.N.N.N.N.N.N.N.N.N.N.N.N.N.N.[O-2].[O-2].[Ru+3].[Ru+3].[Ru+4] [ruthenium red, reference compound]
IC50 [3]: 2.3 µM

COc1ccc(/C=C/C(=O)Nc2ccccc2C(=O)O)cc1OC [tranilast, reference compound]
IC50 [4]: 2.3 ± 0.25 µM

Reference: patent publication US11273152B2, “TRPV2 antagonists” (Instituto de Medicina Molecular João Lobo Antunes, priority 2017, dated 2022)
